Laboratory results: PMC9891171, “Inhibition studies with simple and complex (in)organic anions of the γ-carbonic anhydrase from Mammaliicoccus (Staphylococcus) sciuri, MscCAγ” (Journal of Enzyme Inhibition and Medicinal Chemistry, 2023)

target: T1, MscCAγ (Mammaliicoccus sciuri, UniProt A0AB37HNM1); assay: stopped-flow CO2 hydration assay; format: biochemical; conditions: read-out: KI (mM)^a / McsCAγ
T1 construct: gene OWO77_11715
T1 sequence (A0AB37HNM1 1-169): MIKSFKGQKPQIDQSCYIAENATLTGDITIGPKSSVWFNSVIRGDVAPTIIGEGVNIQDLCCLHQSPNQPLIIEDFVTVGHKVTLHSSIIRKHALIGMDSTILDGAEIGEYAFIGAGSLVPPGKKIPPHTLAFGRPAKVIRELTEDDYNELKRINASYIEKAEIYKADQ

Q: For `CCN(CC)C(=S)S` [N,N-diethyldithiocarbamate], which Ki is on record?
A: The Ki was 0.5 mM.

Q: With `O=S(=O)(O)NS(=O)(=O)O` [iminodisulfonate] as the molecule, how does the Ki read?
A: Its Ki is 13.7 mM.

Q: Which Ki does the source give for `[O]=[Re](=[O])(=[O])[OH]` [perrhenate] here?
A: Its Ki is 4.4 mM.

Q: Which Ki does the source give for `OB(O)c1ccccc1` [phenylboronic acid] here?
A: The Ki was 0.9 mM.

Q: For `O=P(O)(O)OP(=O)(O)O` [pyrophosphate], which Ki is on record?
A: The Ki was 0.8 mM.

Q: Which Ki does the source give for `N#C[SeH]` [selenocyanide] here?
A: The Ki was 32.5 mM.

Q: How did the Ki turn out when `NS(N)(=O)=O` [sulfamide] was run?
A: The Ki was 49.2 mM.

Q: Which Ki does the source give for `NS(=O)(=O)O` [sulphamic acid] here?
A: The Ki was 25.2 mM.

Q: Which Ki does the source give for `S=C(S)S` [trithiocarbonate] here?
A: Its Ki is 0.07 mM.
